Data on five compounds can be found in US5346814A, “Method of detecting cell response to cell-damaging energy” (Board of Trustees of the Leland Stanford Jr. University, priority 1992, dated 1994).

One data set has as its system RIF-1 cells. The data set is described as follows: Clonogenic survival assay after heating at 45° C., RIF-1 cells. In kind it is cell-based, murine. On the procedure: RIF-1 cells were grown at 37° C. in RPMI-1640 medium supplemented with 10% FBS and 2% (v/v) DMSO (dimethylsulfoxide). After seven days of growth, the medium was replaced with DMSO-free medium, and the heat sensitivity of the cells in the presence and absence of 20 mM TEA was determined by clonogenic assay as in Example 4. The results are shown in FIGS. 7A and 7B, with survival data for non-DMSO-treated RIF-1 cells shown for comparison.

For another data set, the system named is HSP70. The data set is described as follows: Western blot of HSP70 polypeptide levels in RIF-1 cells (N-27 antibody). In kind it is cell-based, murine. On the procedure:
Western Blot Analysis In general, following separation of cellular proteins by sodium dodecyl sulfate (SDS)-polyacrylamide gel electrophoresis, separated proteins were electroblotted onto a nitrocellulose membrane using a 25 mM Tris-HCl/192 mM glycine/20% (v/v) methanol transfer buffer (pH 8.3) in a Trans-Blot apparatus (Bio-Rad, Richmond, Calif.) at 15 V and 100 mA for 12 to 14 h. The blot was blocked in 5% nonfat dry milk in TBS (50 mM Tris containing 0.2 M NaCl, pH 7.4) at room temperature for 1h; this step and all following steps were done with continuous agitation. The primary antibody was diluted 1:200 in 3% nonfat dry milk in TBS, and the blot was incubated for 16 to 24 h at 4° C. […]
RIF-1 cells were grown for 7 days in the presence of 2% DMSO as in Example 9. After the seventh day, cells were heated at 45° C. for 10 min, and were analyzed either immediately by SDS gel/Western blot analysis, or after an additional 18 hour growth period at 37° C. to allow synthesis of heat-inducible HSP70 polypeptides. […]
In a parallel set of experiments, heating of the mock- and gene-transfectedcells was performed in the presence or absence of 20 mM TEA, and the expression of HSP70 proteins was determined by immunoblot analysis, using the HSP70-specific N-27 antibody as in Example 10.
For orientation: In western blotting, separated proteins are transferred to a membrane and probed.

The subject of data set [1] is voltage-dependent potassium currents in RIF-1 cells. The data set is described as follows: Whole-cell voltage-clamp recording of heat-inducible potassium currents in DMSO-treated RIF-1 cells. As to conditions: RIF-1 cells grown in 2% DMSO. In kind it is cell-based, murine. How it is done: (§1) Voltage-Clamp Recordings.
The potassium currents of RIF-1 cells grown in the presence of 2% DMSO as above (Example 7) were determined in the presence and absence of 20 mM TEA following heating of the cells at 45° C. for 10 minutes, as in Example 2.

Data set [2] concerns K+ channel proteins recognized by antibody ShA-3. The data set is described as follows: Western blot of K+ channel proteins in RIF-1 cells (ShA-3 antibody). The data set is classed as cell-based, murine. As to conditions: RIF-1 cells grown in 2% DMSO for 3, 5, 7 days. On the procedure:
Western Blot Analysis In general, following separation of cellular proteins by sodium dodecyl sulfate (SDS)-polyacrylamide gel electrophoresis, separated proteins were electroblotted onto a nitrocellulose membrane using a 25 mM Tris-HCl/192 mM glycine/20% (v/v) methanol transfer buffer (pH 8.3) in a Trans-Blot apparatus (Bio-Rad, Richmond, Calif.) at 15 V and 100 mA for 12 to 14 h. The blot was blocked in 5% nonfat dry milk in TBS (50 mM Tris containing 0.2 M NaCl, pH 7.4) at room temperature for 1h; this step and all following steps were done with continuous agitation. The primary antibody was diluted 1:200 in 3% nonfat dry milk in TBS, and the blot was incubated for 16 to 24 h at 4° C. The blot was washed with TBS three times for 10 min per wash, and incubated for 2 h at room temperature with a 1:500 dilution of alkaline phosphatase-conjugated antispecies antibody. After washing with TBS as above, the blot was developed by incubation for 20 min in a solution containing 3-hydroxy-2-naphthoic acid 2,4-dimethylanilide phosphate (1 μg/ml ) and fast red (2 μg/ml) in TBS buffer. The developed blot was washed in distilled, deionized water to stop the color reaction.
RIF-1 and TR-4 cells were grown in exponential phase at 37° C. in RPMI-1640 medium supplemented with 10% FBS. […]

Data set [3] has as its system voltage-dependent potassium currents in A549 cells. The data set is described as follows: Whole-cell voltage-clamp recording of K+ currents in non-irradiated A549 cells after chemical treatment. The data set is classed as cell-based, human.
Data set [4] has the same test system. The data set is described as follows: Whole-cell voltage-clamp recording of radiation-induced K+ currents in A549 cells. In kind it is cell-based, human. How it is done:
as §1
In a second study, to determine whether the induced currents -were affected by the presence of TEA, A549 cells were exposed to 150 cGy of 137Cs γ-irradiation, and the radiation-induced currents were measured under three different conditions: (a) directly after irradiation, (b) after replacement of the bath solution with medium containing 20 mM TEA and (c) after the TEA solution of step (b) had been replaced with TEA-free medium.
A549 cells grown as described in the Materials and Methods section were preincubated for 1 h in medium containing 20 mM N-acetylcysteine (NAC) (Schreck et al., 1991). The cells, still in the presence of NAC, were then irradiated (150 cGy), and the induced currents were recorded. The results are shown in FIG. 19 (open circles, irradiation without NAC preincubation; open triangles, preincubation with 20 mM NAC; solid circles, non-irradiated control cells).

The subject of another data set is heat shock factor (HSF). How it is done: To determine whether the presence of TEA during heating prevented the activation of heat shock factor (HSF), RIF-1 and TR-4 cells grown as in Example 1 were heated at 45° C. for 15-40 minutes in the presence or absence of 20 mM TEA in the medium. After being washed with fresh medium (no TEA), the cells were harvested, and gel retardation assays were performed as described by Zimarino et al. (1987), except that the electrophoresis was performed on a 4.5% native polyacrylamide gel in 0.5X TBE buffer (45 mM Tris-borate, 1 mM EDTA) at 140 V at room temperature for 2.5 h. The gel was fixed by soaking in 7% acetic acid for 5 min, rinsed briefly in distilled water, and dried on Whatman 3 MM chromatography paper. The gel was then autoradiographed by exposing Kodak XAR-2 film to the gels at -70° C. with intensifying screens (Cronex Lighting Plus, Dupont).

The next data set concerns TR-4 cells. The conditions noted are these: 20 mM TEA during 45° C. 40 min heating step and/or 12 h 37° C. incubation. On the procedure:
The development of thermotolerance in TR-4 cells in the presence or absence of 20 mM TEA was assessed by heating the cells at 45° C. for 40 min, followed by a 12 h incubation at 37° C. (Hahn and van Kersen, 1988), and assessment of cell survival following heating and clonogenic assay as described in Example 4. Five groups of TR-4 cells (a to e) were examined, differing only as to which steps of the procedure included TEA in the cell medium.

The subject of a further data set is A549 cells. The conditions noted are these: 20 mM TEA in cell medium during irradiation, doses greater than about 200 cGy. On the procedure:
γ-irradiation. Cells were irradiated at room temperature using a ^137 [Cs] source at a dose rate of 150 cGy/min. The ^137 [Cs] source consisted of a Mark I irradiator (model 30, 2000 Ci ^137 [Cs]) from J. L. Shepherd and Associates (Glendale, Calif.). Unless noted otherwise, the cells were incubated at 37° C. after irradiation for further characterization.
In another experiment, cell survival of A549 cells was measured as a function of ^137 Cs irradiation dosages (0-1000 cGy) in the presence or absence of 20 mM TEA in the cell medium during irradiation.

For data set [5], the system named is voltage-dependent potassium channel currents in TR-4 cells. The conditions noted are these: 20 mM TEA in cell medium during current measurement; TR-4 cells heated 45° C. 10 min.
Protocol: Voltage-Clamp Recordings. Whole-cell recording was performed by voltage clamp analysis as described by Hamill et al. (1981). In general, prior to whole cell recording, the cell medium was replaced with serum-free medium to ensure a better giga-ohm seal. Glass electrodes were prepared using a vertical pipette puller (model P30 from Sutter Instruments, Calif.). The tip diameter to be achieve depended upon the size of the cell-type being examined, but was generally between about 0.5 and 1 μm. Glass electrodes having a tip resistance of 3-7 Mohms were sylgarded (with Sylgard, Dow Chemical) and backfilled with a solution containing 140 mM KCl, 2 mM MgCl2, 11 mM EGTA, 1 mM CaCl2, and 10 mM Hepes, pH 7.2. […] The membrane seal resistance was determined from the reduction in voltage of the test pulse.
Membrane currents were filtered at 2 kHz using a 4-pole low pass Bessel filter before sampling with a 12-bit digital-analog converter controlled by a Labmaster board (Scientific Solutions) in an IBM AT computer. Leakage currents were subtracted from the total currents measured at each voltage either by using a p,p/4 algorithm (Armstrong and Bezanilla, 1974) built into the software (INDEC Systems, Santa Cruz, Calif.), or after determining the linear component from the current-voltage (I-V) relation near the holding potential of -75 mV. […]

Entries after “also recorded” stand apart in the source; their conditions may differ.

On to `C[S+](C)[O-]` [DMSO, dimethylsulfoxide], for which the “heat resistance of cells cultured in DMSO” value in the data set with RIF-1 cells (RIF-1 cells cultured in 2% (v:v) DMSO for seven days, then heated at 45° C.) was “significantly more heat resistant”. For the same compound, the “effect on level of cellular HSP70” value in the data set with HSP70 (RIF-1 cells grown 7 days in 2% DMSO, heated 45° C. 10 min, analyzed directly or after 18 hour growth) is given as “no effect on the level of cellular HSP70”. The “voltage-dependent potassium currents in DMSO-cultured cells after heating” value in data set [1] (heated 45° C. 10 min) is listed as “exhibited voltage-dependent potassium currents”. In [2], the “expression of K+ channel proteins recognized by ShA-3 antibody” value is listed as “expressed at higher levels than in cells grown without DMSO; also recorded: increased with increasing duration of exposure”.
For `OO` [Hydrogen peroxide, hydrogen peroxide], the “induction of voltage-dependent potassium current” value in data set [3] (3.0 μM final concentration in cell medium, measured within 30 seconds) was “sizeable voltage-dependent current”.
Take `CC(=O)N[C@@H](CS)C(=O)O` [N-acetylcysteine]: the “effect on induction of potassium currents by irradiation” value in [4] (20 mM, 1 h preincubation and present during 150 cGy irradiation) is listed as “effective to substantially reduce current induction”.
Turning to `CC[N+](CC)(CC)CC.[Cl-]` [TEA, Tetraethylammonium chloride], the “effect on survival rate after heating” value in the data set on RIF-1 cells (20 mM TEA during heating at 45° C. for 0-100 min, RIF-1 cells) is “no effect on the survival rate of the RIF-1 cells; also recorded: no effect on the survival rate of RIF-1 cells”. In addition, the “effect on heat resistance of DMSO-cultured cells” value in the data set on RIF-1 cells (20 mM TEA in medium during heating, RIF-1 cells cultured 7 days in 2% DMSO) is recorded as “diminished heat resistance”. Besides, in the data set with heat shock factor (HSF), the “effect on heat-induced activation of HSF” value is reported as “eliminated most or all of the heat-induced activation of HSF” and the “effect on levels of activated HSF” value is given as “no effect on the levels of activated HSF”. The “effect on radiation-induced potassium currents” value in data set [4] (20 mM TEA after 150 cGy 137Cs irradiation) is reported as “reversible inhibition; also recorded: could be inhibited by TEA”. In addition, the “effect on development of thermotolerance” value with TR-4 cells was “little effect on the development of thermotolerance”. Besides, the “effect on cytotoxicity of 137Cs irradiation” value in the data set with A549 cells is recorded as “cytotoxicity was increased somewhat”. Besides, the “inhibitory effect on expression of HSP70 (constitutive and inducible forms)” value in the data set with HSP70 (20 mM TEA during heating 10 min 45° C., ShakerB-transfected vs mock-transfected RIF-1 cells) is listed as “greater in the cells transfected with the ShakerB gene than in mock transfected cells; also recorded: greater in the cells transfected with the ShakerB gene than in the mock-transfected cells”. The “effect on heat-induced currents in DMSO-cultured cells” value in data set [1] (20 mM TEA in cell solution during current measurements) is “virtually abolished the currents”. In [5], the “effect on heat-induced voltage-dependent potassium currents” value is “abolished nearly all detectable current”.
As for `Cc1cn([C@H]2C[C@H](O)[C@@H](CO)O2)c(=O)[nH]c1=O` [[^3 H]thymidine], in data set [3] (2 μCi/ml for 16-18 hours prior to whole-cell recording), the “induction of potassium currents” value was “No potassium currents were observed”.
